Measured values taken from PubChem BioAssay (NCI).
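Briefly, cells in 96-well plates were exposed to five compound concentrations for 48 h, and endpoints were estimated by linear interpolation. At the GI50, growth is halved. TGI: concentration producing complete growth inhibition.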

Tests used:
Experiment in all cases: inhibition of tumour cell growth, NCI panel, 48 h; in the data active = GI50 below about 0.43 µM; inactive = the rest
DU-145 prostate = tested on: DU-145 prostate
T-47D breast = tested on: T-47D breast
COLO 205 colon = tested on: COLO 205 colon
HCC-2998 colon = tested on: HCC-2998 colon
HS 578T breast = tested on: HS 578T breast
CCRF-CEM leukemia = tested on: CCRF-CEM leukemia
OVCAR-8 ovarian = tested on: OVCAR-8 ovarian
KM12 colon = tested on: KM12 colon
SF-268 CNS = tested on: SF-268 CNS
CAKI-1 renal = tested on: CAKI-1 renal
SN12C renal = tested on: SN12C renal
SR leukemia = tested on: SR leukemia
SK-MEL-28 melanoma = tested on: SK-MEL-28 melanoma
A549 NSCLC = tested on: A549 NSCLC
RPMI-8226 leukemia = tested on: RPMI-8226 leukemia
SK-MEL-2 melanoma = tested on: SK-MEL-2 melanoma
SK-OV-3 ovarian = tested on: SK-OV-3 ovarian
NCI-H226 lung = tested on: NCI-H226 lung
UACC-257 melanoma = tested on: UACC-257 melanoma
U251 CNS = tested on: U251 CNS
UO-31 renal = tested on: UO-31 renal
HT29 colon = tested on: HT29 colon
HL-60(TB) leukemia = tested on: HL-60(TB) leukemia
SNB-75 CNS = tested on: SNB-75 CNS
HCT-15 colon = tested on: HCT-15 colon
HCT-116 colon = tested on: HCT-116 colon
HOP-62 NSCLC = tested on: HOP-62 NSCLC
A498 renal = tested on: A498 renal
NCI-H460 lung = tested on: NCI-H460 lung
SW-620 colon = tested on: SW-620 colon
UACC-62 melanoma = tested on: UACC-62 melanoma
MALME-3M melanoma = tested on: MALME-3M melanoma
SNB-19 CNS = tested on: SNB-19 CNS
IGROV1 ovarian = tested on: IGROV1 ovarian
K-562 leukemia = tested on: K-562 leukemia
LOX IMVI melanoma = tested on: LOX IMVI melanoma
NCI/ADR-RES ovarian = tested on: NCI/ADR-RES ovarian
MDA-MB-231 breast = tested on: MDA-MB-231 breast
PC-3 prostate = tested on: PC-3 prostate
M14 melanoma = tested on: M14 melanoma
OVCAR-3 ovarian = tested on: OVCAR-3 ovarian
BT-549 breast = tested on: BT-549 breast
OVCAR-4 ovarian = tested on: OVCAR-4 ovarian
MCF7 breast = tested on: MCF7 breast
NCI-H23 lung = tested on: NCI-H23 lung
NCI-H522 lung = tested on: NCI-H522 lung
786-0 renal = tested on: 786-0 renal
OVCAR-5 ovarian = tested on: OVCAR-5 ovarian
RXF 393 renal = tested on: RXF 393 renal
MDA-MB-435 = tested on: MDA-MB-435
MOLT-4 leukemia = tested on: MOLT-4 leukemia
SF-539 CNS = tested on: SF-539 CNS
ACHN renal = tested on: ACHN renal
SF-295 CNS = tested on: SF-295 CNS
SK-MEL-5 melanoma = tested on: SK-MEL-5 melanoma

COc1ccc(-c2nc(-c3ccccc3)c(-c3ccccc3)[nH]2)cc1OC1CCCC1
> 100 µM: TGI (DU-145 prostate) | TGI (T-47D breast) | TGI (COLO 205 colon) | TGI (HCC-2998 colon) | TGI (HS 578T breast) | TGI (CCRF-CEM leukemia) | TGI (OVCAR-8 ovarian) | TGI (KM12 colon) | TGI (SF-268 CNS) | TGI (CAKI-1 renal) | TGI (SN12C renal) | TGI (SR leukemia) | TGI (SK-MEL-28 melanoma) | TGI (A549 NSCLC) | TGI (RPMI-8226 leukemia) | TGI (SK-MEL-2 melanoma) | TGI (SK-OV-3 ovarian) | TGI (NCI-H226 lung) | TGI (UACC-257 melanoma) | TGI (U251 CNS) | TGI (UO-31 renal) | TGI (HT29 colon) | TGI (HL-60(TB) leukemia) | TGI (SNB-75 CNS) | TGI (HCT-15 colon) | TGI (HCT-116 colon) | TGI (HOP-62 NSCLC) | TGI (A498 renal) | TGI (NCI-H460 lung) | TGI (SW-620 colon) | TGI (UACC-62 melanoma) | TGI (MALME-3M melanoma) | TGI (SNB-19 CNS) | TGI (IGROV1 ovarian) | TGI (K-562 leukemia) | TGI (LOX IMVI melanoma) | TGI (NCI/ADR-RES ovarian) | TGI (MDA-MB-231 breast) | TGI (PC-3 prostate) | TGI (M14 melanoma) | TGI (OVCAR-3 ovarian) | TGI (BT-549 breast) | TGI (OVCAR-4 ovarian) | TGI (MCF7 breast) | TGI (NCI-H23 lung) | TGI (NCI-H522 lung) | TGI (786-0 renal) | TGI (OVCAR-5 ovarian) | TGI (MDA-MB-435) | TGI (MOLT-4 leukemia) | TGI (SF-539 CNS) | TGI (ACHN renal) | TGI (SF-295 CNS) | TGI (SK-MEL-5 melanoma)
99.5 µM: TGI (RXF 393 renal)
inactive: GI50 (DU-145 prostate) > 100 µM | GI50 (T-47D breast) 34.9 µM | GI50 (COLO 205 colon) > 100 µM | GI50 (HCC-2998 colon) > 100 µM | GI50 (HS 578T breast) > 100 µM | GI50 (CCRF-CEM leukemia) 51.8 µM | GI50 (OVCAR-8 ovarian) > 100 µM | GI50 (KM12 colon) 40.9 µM | GI50 (SF-268 CNS) > 100 µM | GI50 (CAKI-1 renal) 88 µM | GI50 (SN12C renal) > 100 µM | GI50 (SR leukemia) 15 µM | GI50 (SK-MEL-28 melanoma) > 100 µM | GI50 (A549 NSCLC) > 100 µM | GI50 (RPMI-8226 leukemia) 38.1 µM | GI50 (SK-MEL-2 melanoma) > 100 µM | GI50 (SK-OV-3 ovarian) > 100 µM | GI50 (NCI-H226 lung) > 100 µM | GI50 (UACC-257 melanoma) > 100 µM | GI50 (U251 CNS) > 100 µM | GI50 (UO-31 renal) > 100 µM | GI50 (HT29 colon) 30.8 µM | GI50 (HL-60(TB) leukemia) > 100 µM | GI50 (SNB-75 CNS) > 100 µM | GI50 (HCT-15 colon) 13.2 µM | GI50 (HCT-116 colon) > 100 µM | GI50 (HOP-62 NSCLC) > 100 µM | GI50 (A498 renal) > 100 µM | GI50 (NCI-H460 lung) > 100 µM | GI50 (SW-620 colon) > 100 µM | GI50 (UACC-62 melanoma) > 100 µM | GI50 (MALME-3M melanoma) > 100 µM | GI50 (SNB-19 CNS) > 100 µM | GI50 (IGROV1 ovarian) > 100 µM | GI50 (K-562 leukemia) 79.5 µM | GI50 (LOX IMVI melanoma) 34.3 µM | GI50 (NCI/ADR-RES ovarian) > 100 µM | GI50 (MDA-MB-231 breast) 15.5 µM | GI50 (PC-3 prostate) > 100 µM | GI50 (M14 melanoma) > 100 µM | GI50 (OVCAR-3 ovarian) > 100 µM | GI50 (BT-549 breast) > 100 µM | GI50 (OVCAR-4 ovarian) > 100 µM | GI50 (MCF7 breast) > 100 µM | GI50 (NCI-H23 lung) > 100 µM | GI50 (NCI-H522 lung) 6.11 µM | GI50 (786-0 renal) > 100 µM | GI50 (OVCAR-5 ovarian) > 100 µM | GI50 (RXF 393 renal) 8.3 µM | GI50 (MDA-MB-435) > 100 µM | GI50 (MOLT-4 leukemia) 71.2 µM | GI50 (SF-539 CNS) > 100 µM | GI50 (ACHN renal) > 100 µM | GI50 (SF-295 CNS) 49.8 µM | GI50 (SK-MEL-5 melanoma) > 100 µM
